Legend:
[1] = target: Fak (Homo sapiens, UniProt Q05397); assay: Fak degradation, immunoblotting in PC3 cells; format: cell-based; conditions: 24 hour treatment; for Dmax: PC-3, degradation maximum, n = 3
Protocol: PC3 cells were cultured in F12-K (Kaighn's Modification of Ham's F-12 Medium), supplemented with 10% fetal bovine serum (FBS) and 1% penicillin-streptomycin at 37° C. and 5% CO2.
If not indicated otherwise, cells were seeded and grown to 80% confluency and were treated with compound or control for 24 hours. […] After 20 minutes the mixture was spun down at 16,000×g for 10 minutes at 4° C. to pellet insoluble materials. Protein concentration of supernatants were determined via BCA assay (Thermo Fisher) before addition of NuPAGE sample buffer containing 5% β-Me and boiling at 95° C. for 10 minutes. Equal amounts of protein were subjected to SDS-PAGE and subsequent electrophoretic transfer onto nitrocellulose membrane. […] Immunoblots were developed using enhanced chemiluminescence and visualized using a Bio-Rad Chemi-Doc MP Imaging System and quantitated with Image Lab v.5.2.1 software (Bio-Rad Laboratories). Data analysis and statistics was performed using Prism 7.0 (GraphPad).
Examination of Target Protein (Fak) Degradation.

[2] = tested on: p-Fak(Y397); assay: Fak activation, western blot in PC3 cells; format: cell-based, human; conditions: serum deprived PC3 cells, 24 h
Protocol: (§1) If not indicated otherwise, cells were seeded and grown to 80% confluency and were treated with compound or control for 24 hours. Subsequently, the growth media was removed and the cells lysed by the addition of lysis buffer (25 mM Tris, pH 7.4; 1% NP-40, 0.25% deoxycholate, 1 mM sodium vanadate, 10 mM sodium fluoride, 10 mM sodium pyrophosphate, 20 mM β-glycerophosphate and 1× complete EDTA-free protease inhibitor cocktail (Roche)). After 20 minutes the mixture was spun down at 16,000×g for 10 minutes at 4° C. to pellet insoluble materials. Protein concentration of supernatants were determined via BCA assay (Thermo Fisher) before addition of NuPAGE sample buffer containing 5% β-Me and boiling at 95° C. for 10 minutes. Equal amounts of protein were subjected to SDS-PAGE and subsequent electrophoretic transfer onto nitrocellulose membrane. Rabbit antibodies were purchased from Cell Signaling: Fak (3285), p-Fak (3283), p-Paxillin (2541), p-Akt (S473)(4060), GAPDH (2118), Androgen Receptor (5153), p-Src(Y527)(2105), p-S6RP (2215). Mouse antibodies were purchased from Cell Signaling: tubulin (3873), S6RP (2317). Secondary antibody ∝-rabbit (31460) or ∝-mouse (31444) was coupled to horseradish peroxidase and purchased from Thermo Fisher. Immunoblots were developed using enhanced chemiluminescence and visualized using a Bio-Rad Chemi-Doc MP Imaging System and quantitated with Image Lab v.5.2.1 software (Bio-Rad Laboratories). Data analysis and statistics was performed using Prism 7.0 (GraphPad).
Fak levels are undetectable at concentrations of 100 nM through 1 μM of exemplary compound 102, and slightly rebound at concentrations of 5 μM (10%) and 10 μM (27%) due to an observed hook effect. […] Paxillin, a downstream target of the Fak-Src complex, has been associated with cell migration. […] Akt is a kinase that is tied to the Fak signaling cascade via PI3K, but can be activated through other pathways as well. […] A maximum p-Akt suppression of 93% is observed at 1 μM of exemplary compound 102. […]

[3] = tested on: p-Akt (S473); assay: Fak downstream signaling, western blot in PC3 cells; format: cell-based, human; conditions: serum deprived PC3 cells, 24 h
Protocol: as §1
(§2) Fak levels are undetectable at concentrations of 100 nM through 1 μM of exemplary compound 102, and slightly rebound at concentrations of 5 μM (10%) and 10 μM (27%) due to an observed hook effect. […] Paxillin, a downstream target of the Fak-Src complex, has been associated with cell migration. […] Akt is a kinase that is tied to the Fak signaling cascade via PI3K, but can be activated through other pathways as well. […] A maximum p-Akt suppression of 93% is observed at 1 μM of exemplary compound 102. […] A similar differential can be observed when exemplary compound 102 is compared to its non-degrading diastereomer exemplary compound 106 (FIGS. 9A-9F and 10A-10D). These differences are the result of the distinct MOA Fak degraders are able to provide compared to inhibitors.

[4] = tested on: p-paxillin; assay: as above; format: cell-based, human; conditions: serum deprived PC3 cells, 24 h
Protocol: as §1, §2

[5] = tested on: MDA-MB-231 cells; assay: Transwell invasion assay; format: cell-based, human; conditions: 100 nM, 24 hours
Protocol: On the first day, 0.2× Basement Membrane Extract (BME) working solution was prepared by diluting 5×BME stock solution in 1× Travigen Inc. coating buffer. Briefly, 100 μL of 10× coating buffer was diluted in 900 μL of sterile water to make 1× coating buffer. Then 960 μL of 1× coating buffer was mixed with 40 μL of 5×BME to make working 0.2×BME solution. Corning Transwell permeable inserts (Costar Transwell chambers, Corning) were placed on a 24-well plate and 100 μL of 0.2×BME solution was added to each Transwell insert and incubated for 16 hours. Following day, MDA-MB-231 cells were trypsinized and cells were suspended in serum free medium. Approximately 100 μL from cell suspension (˜3×10^5 cells) was added to each Transwell insert followed by another 100 μL of exemplary compound or control containing serum free RPMI medium. The lower chamber was filled with 10% FBS containing RPMI medium and the whole setup was incubated at 37° C. 1-5% CO2 for 24 hours. After 24 hours, cell culture medium was removed from both lower and upper chambers and Transwell inserts were washed three times with PBS. […] Images were then analyzed by ImageJ software and number of cells on the bottom side of the membrane were counted and presented as a bar graph using Prism 7.0 (GraphPad). Differences among groups were analyzed by Welch's t-test and considered significant when P<0.05. […]

[6] = tested on: MDA-MB-231 cells; assay: Cell proliferation assay (MTS); format: cell-based, human; conditions: 96 hours
Protocol: (§3) Cells were seeded in 96-well plates and treated with exemplary compound or control as indicated. At desired time points culture medium was supplemented with […] MTS (Promega) and […] phenazine methosulfate (Sigma) and incubated at 37° C. Mitochondrial reduction of MTS to the formazan derivative was monitored by measuring the medium's absorbance at 490 nm using a Wallac Victor 2 plate reader (Perkin-Elmer Life Sciences). Data analysis and statistics was performed using Prism 7.0 (GraphPad).

[7] = tested on: PC3 cells; assay: Cell proliferation assay (MTS); format: cell-based, human; conditions: 96 h
Protocol: as §3

Sequence of Fak (Q05397 whole entry): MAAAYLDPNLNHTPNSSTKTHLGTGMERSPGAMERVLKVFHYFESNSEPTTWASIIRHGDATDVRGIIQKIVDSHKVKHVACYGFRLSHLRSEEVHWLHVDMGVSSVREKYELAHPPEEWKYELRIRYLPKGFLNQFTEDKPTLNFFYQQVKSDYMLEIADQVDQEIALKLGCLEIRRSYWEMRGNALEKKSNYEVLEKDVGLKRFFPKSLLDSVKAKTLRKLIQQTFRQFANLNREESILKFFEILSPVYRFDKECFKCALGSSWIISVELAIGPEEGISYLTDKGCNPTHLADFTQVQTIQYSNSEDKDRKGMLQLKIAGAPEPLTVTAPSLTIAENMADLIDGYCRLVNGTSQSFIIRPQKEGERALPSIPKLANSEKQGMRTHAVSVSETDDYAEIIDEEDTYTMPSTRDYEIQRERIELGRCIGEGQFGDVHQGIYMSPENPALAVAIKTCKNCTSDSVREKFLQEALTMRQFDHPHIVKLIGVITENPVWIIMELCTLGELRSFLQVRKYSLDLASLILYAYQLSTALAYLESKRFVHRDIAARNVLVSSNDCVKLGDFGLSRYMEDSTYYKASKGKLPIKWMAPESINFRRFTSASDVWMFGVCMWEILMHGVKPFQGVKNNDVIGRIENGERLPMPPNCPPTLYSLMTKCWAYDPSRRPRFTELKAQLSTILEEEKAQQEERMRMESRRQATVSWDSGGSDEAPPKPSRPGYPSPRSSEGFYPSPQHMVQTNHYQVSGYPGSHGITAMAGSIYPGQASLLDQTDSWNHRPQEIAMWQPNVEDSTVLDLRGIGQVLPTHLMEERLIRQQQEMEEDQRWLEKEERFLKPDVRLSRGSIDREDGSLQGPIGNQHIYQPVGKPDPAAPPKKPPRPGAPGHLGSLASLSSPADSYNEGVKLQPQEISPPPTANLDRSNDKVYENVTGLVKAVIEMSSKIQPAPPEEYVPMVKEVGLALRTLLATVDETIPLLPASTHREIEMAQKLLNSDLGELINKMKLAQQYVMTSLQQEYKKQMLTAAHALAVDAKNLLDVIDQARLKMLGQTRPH

SMILES | Dmax ([1]; PC3 cells) [%] | lowest level of p-Fak activity (remaining) ([2]; 10 μM) [%] | maximum reduction of p-Akt ([3]; 10 μM) [%] | maximum reduction of p-paxillin levels ([4]; 10 μM) [%] | effect on cell invasion (in words) [5] | DC50 ([1]; half-maximal degradation concentration, PC3 cells) [nM] | total Fak remaining ([1]; serum deprived PC3 cells, 10 nM) [%] | total Fak remaining ([1]; serum deprived PC3 cells, 50 nM) [%] | Fak levels ([1]; serum deprived PC3 cells, 100 nM through 1 μM) | Fak levels (rebound, hook effect) ([1]; serum deprived PC3 cells, 5 μM) [%] | Fak levels (rebound, hook effect) ([1]; serum deprived PC3 cells, 10 μM) [%] | p-Fak levels ([2]; between 100 nM and 5 μM) | Fak activation (p-Fak(Y397)) compared to DMSO (in words) ([2]; increasing concentrations) | maximum p-Akt suppression ([3]; 1 μM) [%] | effect on p-Akt (S473) (in words) ([3]; increasing concentrations) | reduction of p-paxillin levels ([4]; above 50 nM) | reduction of cell invasion [5] [%] | cell viability or proliferation (in words) [6] | cell viability or proliferation (in words) [7]
CNC(=O)c1ccc(Nc2ncc(C(F)(F)F)c(NCc3nccnc3N(C)S(C)(=O)=O)n2)cc1 [Defactinib, defactinib, reference compound] | 0 | 26 | 88 | 62 | no significant effect | – | – | – | – | – | – | – | – | – | – | – | – | – | –
Cc1ncsc1-c1ccc(CNC(=O)[C@@H]2C[C@@H](O)CN2C(=O)[C@@H](NC(=O)CCOCCOc2ccc(Nc3ncc(C(F)(F)F)c(NCc4cccc(N(C)S(C)(=O)=O)c4)n3)cc2)C(C)(C)C)cc1 [Compound 102, (2S,4R)-1-((S)-3,3-dimethyl-2-(3-(2-(4-((4-((3-(N-methylmethylsulfonamido)benzyl)amino)-5-(trifluoromethyl)pyrimidin-2-yl)amino)phenoxy)ethoxy)propanamido)butanoyl)-4-hydroxy-N-(4-(4-methylthiazol-5-yl)benzyl)pyrrolidine-2-carboxamide] | 99 | – | – | – | – | 3.3 | 34 | 5 | undetectable | 10 | 27 | less than 5% | significantly reduced | 93 | significant at all treatment concentrations | 85-90% | 65 | do not affect cell viability or proliferation within four days | do not affect cell viability or proliferation within four days
